Assays:
Type in all cases: cell-based, Sprague-Dawley rat
[1] = test system: hippocampal slice; assay: Carbachol-induced beta rhythms in hippocampal tissue (64-electrode recording, FFT); settings: FIG. 2
From the text: (§1) Procedures for the preparation of the recently introduced Multi-Electrode Dish (Panasonic: MED probe) are described by Oka et al., J Neurosci Methods 93: 61-67 (1999). The device has an array of 64 planar microelectrodes, each having a size of 50×50 μm, arranged in an 8 by 8 pattern. Probes used in the experiments described below were medium arrays with 300 μm interelectrode spacing (Panasonic: MED-P530AP).
A 17-25 day old Sprague-Dawley rat was sacrificed by decapitation after anesthesia using halothane (2-Bromo-2-chloro-1,1,1-trifluoroethane, Sigma: B4388), and the whole brain was removed. The brain was immediately soaked in ice-cold, oxygenated preparation buffer of the following composition (in mM): 124 NaCl, 26 NaHCO3, 10 glucose, 3 KCl, 1.25 NaH2PO4, 1.5 CaCl2, 0.5 MgSO4, for approximately 2 minutes. Appropriate portions of the brain were trimmed and placed on the ice-cold stage of a vibrating tissue slicer (Leica: VT-1000S). […]
During electrophysiological recording, the slices on the MED probe were placed in a small CO2 incubator (Yamato: model IC400) at 32° C. […] In this condition, responses were recorded for more than 2 hours. […]
(§2) Spontaneous and evoked field potentials at all 64 sites were recorded simultaneously with the multi-channel recording system (Panasonic: MED64 system) at a 20 kHz sampling rate. […]

[2] = test system: hippocampal slice; assay: Evoked responses following Schaffer collateral stimulation in presence and absence of carbachol (field potentials, current source density)
Description: (§3) A 17-25 day old Sprague-Dawley rat was sacrificed by decapitation after anesthesia using halothane (2-Bromo-2-chloro-1,1,1-trifluoroethane, Sigma: B4388), and the whole brain was removed. The brain was immediately soaked in ice-cold, oxygenated preparation buffer of the following composition (in mM): 124 NaCl, 26 NaHCO3, 10 glucose, 3 KCl, 1.25 NaH2PO4, 1.5 CaCl2, 0.5 MgSO4, for approximately 2 minutes. Appropriate portions of the brain were trimmed and placed on the ice-cold stage of a vibrating tissue slicer (Leica: VT-1000S). The stage was immediately filled with both oxygenated and frozen preparation buffers. The thickness of each tissue slice was 350 μm. Each slice was gently taken off the blade using a blunt-end pipette, and immediately soaked in oxygenated preparation buffer for at least 1 hour at room temperature. A slice was then placed on the center of the MED probe, positioned to cover the 8×8 array. After positioning the slice, the MED probe was placed directly in a box filled with 95% O2 and 5% CO2 and allowed to recover and adhere at 32° C. for 1 hour.
(§4) During electrophysiological recording, the slices on the MED probe were placed in a small CO2 incubator (Yamato: model IC400) at 32° C. The slices remained on the MED probe, which was attached to a recording interface, and a moisturized 95% O2 and 5% CO2 gas mixture was blown from above. In this condition, responses were recorded for more than 2 hours.
Carbachol was obtained from Sigma. A carbachol solution was applied to the neuronal samples at known concentrations of either 25 or 50 μM. The lower concentration was used in all except two cases. […] Carbachol solutions were prepared daily from frozen aliquots.
Spontaneous and evoked field potentials at all 64 sites were recorded simultaneously with the multi-channel recording system (Panasonic: MED64 system) at a 20 kHz sampling rate. In the case of the evoked response, one or more than two microelectrodes out of the 64 available were chosen for stimulating. Bipolar constant current pulses (20 to 40 μA, 0.1 msec) were produced by the data acquisition software through the isolator. The stimulating microelectrodes were selected by the 64 switchbox.
The method of continuous, two-dimensional current source density employed has been previously described (Shimono et al., supra). The 2-dimensional array of electrodes allows for simultaneous estimation of current flows in any direction within the plane of the slice. The data was low-pass filtered at 100 Hz and spatially smoothed by a 3×3-weighted average kernel (0 1/8 0, 1/8 1/2 1/8, and 0 1/8 0). […] A limitation of the technique is that only large spatial patterns, with radii≧one-half of the interelectrode distance, can be accurately resolved. Additionally, low-pass filtering removes high-frequency data, limiting the amount of fine detail that can be observed.

[3] = test system: hippocampal slice; assay: Network level evoked response to single pulse Schaffer commissural stimulation during carbachol-induced rhythms, multi-electrode dish
From the text: as §1
For sufficient adhesion of the slice to the probe, the surface of the MED probe was treated with 0.1% polyethylenimine (Sigma: P-3143) in 25 mM borate buffer, pH 8.4, for 8 hours at room temperature. The probe surface was rinsed 3 times with sterile distilled water. The probe (chamber) was then filled with DMEM/F-12 mixed medium, containing 10% fetal bovine serum (GIBCO: 16141-079) and 10% horse serum (GIBCO: 16050-122), for at least 1 hour at 37° C. DMEM/F-12 mixed medium is a 1:1 mixture of Dulbecco's Modified Eagle's Medium and Ham's F-12 (GIBCO: D/F-12 medium, 12400-024), supplemented with N2 supplement (GIBCO: 17502-014) and hydrocortisone (20 nM, Sigma, H0888).
as §3, §4
Carbachol was obtained from Sigma. […]
as §2

[4] = CA1 apical dendrites, presence of carbachol
[5] = single pulse stimulation with carbachol, eight slices
[6] = 100 μM heptachlor, Schaffer commissural stimulation, FIG. 8

Compound	dominant frequency of rhythms (normalized power spectra, all 64 electrodes) ([1]; 25 μM carbachol)	stability of rhythms ([1]; after carbachol infusion)	intensity of activity (current source density) ([2]; 25 μM carbachol vs without carbachol, 10 ms after stimulation)	spread of activity (current source density) ([2]; 25 μM carbachol vs without carbachol, 10 ms after stimulation, particularly field CA3)	start of slow negative going component after stimulation [2, 4] [ms]	start of slow negative going component after the initial response [2, 4]	return to baseline after stimulation ([2]; CA1 stratum radiatum and oriens, carbachol-induced beta waves, FIG. 4) [ms]	return to baseline of positive-going potential ([2]; CA3 basal dendritic field, carbachol-driven beta rhythms, FIG. 5)	stimulation trials eliciting a sustained network response ([2]; Schaffer collateral stimulation in the presence of cholinergic rhythms)	frequency of bursts of spikes accompanying the first carbachol dependent slow potential ([2]; field CA3)	recordings with responses similar to the control responses [2, 5]	traces with bursts of spikes in CA3 stratum pyramidale and prominent after potentials in CA1 and CA3 [2, 5]	depolarizing phase of the slow component of the waveform ([3]; 100 μM heptachlor, FIG. 8)	fast component, corresponding to the traditional evoked response [3, 6]	slow component of the network complex evoked response [3, 6]	network level evoked response to single pulse Schaffer commissural stimulation upon infusion ([3]; figure legends FIGS. 8-11)
C[N+](C)(C)CCOC(N)=O [carbachol]	in the beta range	stable for over two hours	markedly increased	far greater	25	about 10 msec	140	approximately 125 ms	approximately 70%	100-200 Hz	16 of 53	37 of 53	–	–	–	–
ClC1=C(Cl)C2(Cl)C3C(Cl)C=CC3C1(Cl)C2(Cl)Cl (stereo not shown) [heptachlor]	–	–	–	–	–	–	–	–	–	–	–	–	complete elimination	not changed	changed dramatically	changes
